Literature values in patent US4093713A, “Dipeptide derivatives with central nervous system activity and preparation thereof” (Ayerst McKenna & Harrison Ltd., priority 1977, dated 1978).
Where two headings read alike, the source gives them in different places.

Legend:
[1] = test system: behavioral effects of L-DOPA; conditions: literature: Plotnikoff 1971, Friedman 1973
[2] = test system: sedative effects of deserpidine; conditions: monkeys; literature: Plotnikoff
[3] = in vivo
[4] = test system: sedative effects of deserpidine; conditions: mice; literature: Plotnikoff
effects of oxotremorin = conditions: literature: Plotnikoff 1972

H-L-prolyl-L-leucyl-glycinamide [H-Pro-Leu-Gly-NH2]
potentiation of the behavioral effects of L-DOPA [1]: potentiates the behavioral effects of (3,4-dihydroxyphenyl)-L-alanine (L-DOPA) | reversal of the sedative effects of deserpidine [2]: reverses the sedative effects of deserpidine | duration of action [3]: short duration of action | first step in the inactivation [3]: proteolytic cleavage of the Pro-Leu bond with formation of proline and leucyl-glycinamide | reversal of the sedative effects of deserpidine [4]: reverses the sedative effects of deserpidine | antagonism of the effects of oxotremorin (effects of oxotremorin): antagonizes the effects of oxotremorin
